Test system: 292921-168-R-J2-PDC KRAS tumor spheroid viability
Test: Anticancer human tumor 292921-168-R-J2-PDC patient-derived pancreatic carcinoma cell line growth inhibition [KRAS2]
Conditions: spheroids with HUVEC and MSC; for viability, T/C: stronger effect = lower value
From the text: Multicellular complex tumor spheroid response to RAS pathway inhibitors in combination with a targeted agents in patient-derived cell lines with oncogenic KRAS variants from multiple cancer types
A high-throughput screen of multi-cell type tumor spheroids was designed to identify active combinations of targeted small molecules and KRAS pathway inhibitors. Complex spheroids include a stromal component modeled by human endothelial cells (HUVEC) and fibroblasts modeled by human mesenchymal stem cells (MSCs). The concentration ranges selected for each drug and investigational agent were based upon clinically achievable concentrations if the clinical Cmax of the agent was known.
Compounds. The drugs and investigational agents: BI-3406 (NSC825286), BAY-293 (NSC824723), batoprotafib (TNO155; NSC825523), sotorasib (AMG 510; NSC818433), MRTX1257 (NSC819558), elimusertib (BAY 1895344; NSC800525), molibresib (GSK525762; NSC774829), temuterkib (LY3214996; NSC803410), venetoclax (NSC766270), alisertib (NSC759677), olaparib (NSC753686), talazoparib (NSC767125), erdafitinib (NSC781556), ipatasertib (NSC767898), cabozantinib (NSC761068), nintedanib (NSC756659), abemaciclib (NSC768073), docetaxel (NSC628503), trametinib (NSC758246), and sapanisertib (NSC764658) were obtained from the National Cancer Institute (NCI) Developmental Therapeutics Program Chemical Repository. The FDA-approved anticancer drug set is available from the Developmental Therapeutics Program. […] The stock solutions were prepared in dimethyl sulfoxide (DMSO, Sigma-Aldrich, St. Louis, MO, cat. D2650) at 800-fold the tested concentration and stored at -70 degrees C prior to their use. All drugs and investigational agents were tested over a range starting from a high concentration at or near the clinical Cmax and decreasing in half-log increments. If the clinical Cmax for an agent had not been determined, the highest concentration tested was 10 microM.
Cell Culture. All cells were maintained in an incubator at 37 degrees C and 5% CO2 with 95% humidity. The PDC lines were cultured according to standard operating procedures established by the NCI PDMR (https://pdmr.cancer.gov/sops/default.htm). Briefly, all PDCs were thawed and cultured in Matrigel-coated flasks prepared with a working solution of 1X Ham's F-12 nutrient mix, without supplementation (Invitrogen, Waltham, MA, cat. 11765054), 100 U/mL penicillin-streptomycin (Invitrogen, cat. 15140122), and 2.5% Matrigel (Corning Inc., Corning, NY, cat. 354248) for the first three passages. All PDCs were cultured in complete DMEM/F-12 media containing advanced DMEM/F-12 (Invitrogen, cat. 12634028), 4.9% defined fetal bovine serum, heat inactivated (HyClone Laboratories Inc., Logan, UT, cat. SH30070.03HI), 389 ng/mL hydrocortisone (Sigma-Aldrich, cat. H4001), 9.7 ng/mL human EGF recombinant protein (Invitrogen, cat. PHG0313), 23.4 microg/mL adenine (Sigma-Aldrich, cat. A2786), 97.3 U/mL penicillin-streptomycin (Invitrogen, cat. 15140122), 1.9 mM L-glutamine (Invitrogen, cat. 25030081), and 9.7 microM Y-27632 dihydrochloride (Tocris Bioscience, Bristol, United Kingdom, cat. 1254). The PDCs were cultured in complete DMEM/F12 media without 9.7 microM Y-27632 dihydrochloride for at least two passages prior to the screen. The established cell line HOP-62 was cultured in RPMI 1640 medium, HEPES (Invitrogen, cat. 22400105) with 10% defined fetal bovine serum (HyClone Laboratories Inc., cat. SH30070.03) and 2 mM L-glutamine (Invitrogen, cat. 25030081). The pooled donor HUVEC were cultured in endothelial cell growth medium 2 (PromoCell, Heidelberg, Germany, cat. C-22011) and the hMSC were cultured in mesenchymal stem cell growth medium 2 (PromoCell, cat. C-28009). For all experiments, HUVEC and hMSC were used at passages </=5, while the malignant cell lines were used at passages </=15. […]

[1] = curve of first compound, second compound 0.1 µM
[2] = curve of first compound, second compound 0.316 µM
[3] = curve of first compound, second compound 1 µM
[4] = curve of first compound, second compound 3.16 µM
[5] = curve of first compound, second compound 10 µM
[6] = second compound 0.1 µM, first compound 0.0316 µM
[7] = second compound 0.1 µM, first compound 0.1 µM
[8] = second compound 0.1 µM, first compound 0.316 µM
[9] = second compound 0.1 µM, first compound 1 µM
[10] = second compound 0.1 µM, first compound 3.16 µM
[11] = second compound 0.316 µM, first compound 0.0316 µM
[12] = second compound 0.316 µM, first compound 0.1 µM
[13] = second compound 0.316 µM, first compound 0.316 µM
[14] = second compound 0.316 µM, first compound 1 µM
[15] = second compound 0.316 µM, first compound 3.16 µM
[16] = second compound 1 µM, first compound 0.0316 µM
[17] = second compound 1 µM, first compound 0.1 µM
[18] = second compound 1 µM, first compound 0.316 µM
[19] = second compound 1 µM, first compound 1 µM
[20] = second compound 1 µM, first compound 3.16 µM
[21] = second compound 3.16 µM, first compound 0.0316 µM
[22] = second compound 3.16 µM, first compound 0.1 µM
[23] = second compound 3.16 µM, first compound 0.316 µM
[24] = second compound 3.16 µM, first compound 1 µM
[25] = second compound 3.16 µM, first compound 3.16 µM
[26] = second compound 10 µM, first compound 0.0316 µM
[27] = second compound 10 µM, first compound 0.1 µM
[28] = second compound 10 µM, first compound 0.316 µM
[29] = second compound 10 µM, first compound 1 µM
[30] = second compound 10 µM, first compound 3.16 µM
[31] = second compound 0.1 µM, first compound 10 µM
[32] = second compound 0.316 µM, first compound 10 µM
[33] = second compound 1 µM, first compound 10 µM
[34] = second compound 3.16 µM, first compound 10 µM
[35] = second compound 10 µM, first compound 10 µM
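Note: drug exposure lasted seven days after spheroids formed for three days.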
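Throughout, for viability, T/C: percent of DMSO vehicle control viability which is 100%.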

Row | SMILES | IC50 [1] [µM] | IC50 [2] [µM] | IC50 [3] [µM] | IC50 [4] [µM] | IC50 [5] [µM] | viability, T/C [6] [%] | viability, T/C [7] [%] | viability, T/C [8] [%] | viability, T/C [9] [%] | viability, T/C [10] [%] | viability, T/C [11] [%] | viability, T/C [12] [%] | viability, T/C [13] [%] | viability, T/C [14] [%] | viability, T/C [15] [%] | viability, T/C [16] [%] | viability, T/C [17] [%] | viability, T/C [18] [%] | viability, T/C [19] [%] | viability, T/C [20] [%] | other results
1 | CC1COCCN1c1cc(-c2ccnn2C)c2ccnc(-c3ccn[nH]3)c2n1 (stereo not drawn) + CNCc1ccccc1-c1csc(C(C)Nc2nc(C)nc3cc(OC)c(OC)cc23)c1 | < 0.01 | < 0.01 | < 0.01 | < 0.01 | < 0.01 | 21 | 15.5 | 13.1 | 15.2 | 16.1 | 19.7 | 12.7 | 12.9 | 14.1 | 14.8 | 16.3 | 11.1 | 11.3 | 13.5 | 12.8 | viability, T/C (second compound 0.1 µM, first compound 0.01 µM): 39.3%; viability, T/C (second compound 0.316 µM, first compound 0.01 µM): 34.4%; viability, T/C (second compound 1 µM, first compound 0.01 µM): 28.9%; viability, T/C (second compound 3.16 µM, first compound 0.01 µM): 0.07%; viability, T/C [21]: 0.07%; viability, T/C [22]: 0.05%; viability, T/C [23]: 0.08%; viability, T/C [24]: 0.1%; viability, T/C [25]: 0.16%; viability, T/C (second compound 10 µM, first compound 0.01 µM): 0.11%; viability, T/C [26]: 0.09%; viability, T/C [27]: 0.27%; viability, T/C [28]: 0.08%; viability, T/C [29]: 0.09%; viability, T/C [30]: 0.15%
2 | COC(=O)c1ccc2c(C(=Nc3ccc(N(C)C(=O)CN4CCN(C)CC4)cc3)c3ccccc3)c(O)[nH]c2c1 + CC1OCC2(CCN(c3cnc(Sc4ccnc(N)c4Cl)c(N)n3)CC2)C1N | 0.217 | 0.241 | < 0.0316 | 0.105 | 0.105 | 71.4 | 57.7 | 48.3 | 24.8 | 12.3 | 76.8 | 63.1 | 46.1 | 26.6 | 9.27 | 48 | 44.3 | 37.6 | 19.3 | 10 | viability, T/C [31]: 0.41%; viability, T/C [32]: 0.34%; viability, T/C [33]: 0.37%; viability, T/C [21]: 60%; viability, T/C [22]: 51.8%; viability, T/C [23]: 34.5%; viability, T/C [24]: 17.9%; viability, T/C [25]: 9.11%; viability, T/C [34]: 0.37%; viability, T/C [26]: 58.2%; viability, T/C [27]: 50.3%; viability, T/C [28]: 34.6%; viability, T/C [29]: 17.4%; viability, T/C [30]: 1.12%; viability, T/C [35]: 0.57%
3 | COc1cc2nccc(Oc3ccc(NC(=O)C4(C(=O)Nc5ccc(F)cc5)CC4)cc3)c2cc1OC + COc1cc2nc(C)nc(NC(C)c3cc(N)cc(C(F)(F)F)c3)c2cc1OC1CCOC1 | 2.31 | 2.44 | 1.59 | 0.996 | < 0.0316 | 102 | 110 | 101 | 77.8 | 40 | 99.4 | 99.4 | 92 | 75 | 42.5 | 102 | 86.9 | 88.6 | 60.4 | 33.2 | viability, T/C [31]: 21.1%; viability, T/C [32]: 23.7%; viability, T/C [33]: 17.6%; viability, T/C [21]: 73.6%; viability, T/C [22]: 72.9%; viability, T/C [23]: 64.6%; viability, T/C [24]: 51.8%; viability, T/C [25]: 22.2%; viability, T/C [34]: 11.8%; viability, T/C [26]: 45.1%; viability, T/C [27]: 31.1%; viability, T/C [28]: 36.6%; viability, T/C [29]: 31.9%; viability, T/C [30]: 15.8%; viability, T/C [35]: 0.83%
4 | O=C(c1cc(Cc2n[nH]c(=O)c3ccccc23)ccc1F)N1CCN(C(=O)C2CC2)CC1 | – | – | – | – | – | – | – | – | – | – | – | – | – | – | – | – | – | – | – | – | viability, T/C (compound 0.0316 µM): 96.3% [middle of 5 runs]; viability, T/C (compound 10 µM): 46% [middle of 5 runs]; IC50 (curve of compound): 8.55 µM [middle of 5 runs]

From PubChem BioAssay AID1963870 (Molecular Pharmacology Branch, DTP, NCI, 2024)
